System: hiRPCp2
Test: Differentiation ability of hiRPCp2 expanded in K+ medium (qRT-PCR of CRX and BRN3A)
Format: cell-based, human
Conditions: Diff-2, late forced differentiation in ProB27 medium supplemented by DAPT, D10, qRT-PCR of CRX
Experimental: Total RNAs were extracted using Nucleospin RNA II kit (Macherey-Nagel) according to the manufacturer's protocol, and RNA yields and quality were checked with a NanoDrop spectrophotometer (Thermo Fisher Scientific). cDNA were synthesized from 250 ng of mRNA using the QuantiTect reverse transcription kit (Qiagen) following manufacturer's recommendations. Synthesized cDNA were then diluted at 1/20 in DNase-free water before performing quantitative PCR. qPCR analysis was performed on an Applied Biosystems real-time PCR machine (7500 Fast System) with custom TaqMan® Array 96-Well Fast plates and TaqMan® Gene expression Master Mix (Thermo Fisher Scientific) following manufacturer's instructions. All primers and MGB probes labeled with FAM for amplification were purchased from Thermo Fischer Scientific as described in Reichman et al., 2017 [2], ASCL1 (Assay ID Hs04187546_g1). Results were normalized against 18S and quantification of gene expression was based on the DeltaCt Method.
We tested the ability of the hiRPCs expanded after two passages (hiRPCp2) in K+ medium to be differentiated in retinal neurons. Three different culture conditions were tested: 1—By a spontaneous differentiation in ProB27 medium, a control condition. 2—By an “early forced” differentiation using ProB27 medium supplemented by DAPT, a Notch pathway inhibitor, directly after K+ medium condition at D3 (Diff 1). […]

C[C@H](NC(=O)Cc1cc(F)cc(F)c1)C(=O)N[C@H](C(=O)OC(C)(C)C)c1ccccc1 [DAPT]
differentiation of hiRPCp2: favors the hiRPCs differentiation in photoreceptor precursors
